The record followed here is article PMC4014597 (PLoS ONE, 2014).

The target of series [1] is T1, human G9a-like protein (GLP) (Homo sapiens, UniProt Q9H9B1).
T1 construct: catalytic SET domain (residues 734-1235; pXC758) were purified as described; made in house
T1 sequence (Q9H9B1 765-1266): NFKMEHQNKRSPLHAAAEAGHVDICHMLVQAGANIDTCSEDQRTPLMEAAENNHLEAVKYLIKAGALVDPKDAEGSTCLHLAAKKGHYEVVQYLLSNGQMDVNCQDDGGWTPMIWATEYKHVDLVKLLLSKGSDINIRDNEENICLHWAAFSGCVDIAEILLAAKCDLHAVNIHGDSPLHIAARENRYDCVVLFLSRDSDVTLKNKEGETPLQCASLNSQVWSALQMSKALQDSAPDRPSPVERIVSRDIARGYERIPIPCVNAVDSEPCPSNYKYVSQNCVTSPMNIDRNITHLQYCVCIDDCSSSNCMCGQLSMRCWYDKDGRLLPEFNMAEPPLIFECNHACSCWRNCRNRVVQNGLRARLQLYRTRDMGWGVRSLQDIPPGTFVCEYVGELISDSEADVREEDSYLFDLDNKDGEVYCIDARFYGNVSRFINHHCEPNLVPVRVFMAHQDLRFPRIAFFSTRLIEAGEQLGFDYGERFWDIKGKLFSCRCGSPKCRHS
As to the kind of experiment: GLP assay (histone methylation inhibition). The class given is biochemical. As to conditions: 8 μM inhibitor; read-out: Percent of GLP inhibition. As for the experimental part:
GLP Assay. Recombinant human G9a-like protein (GLP) C-terminal fragment containing both the ankyrin repeats and catalytic SET domain (residues 734-1235; pXC758) were purified as described. For histone methylation inhibition, the assay was performed in 20 μL reaction containing 4.6 mM [methyl-^3H]-AdoMet, 50 μg/mL histone from calf thymus (SIGMA), 10 μg/mL (0.17 μM) GLP, 100 mM KCl, 5 mM (DTT) and 50 mM Tris-HCl pH 8.5. GLP was pre-incubated with AdoMet and 8 µM inhibitors for 5 min at 30 °C before the addition of the histone substrate. After incubation (5 min), the reaction was terminated by the addition of 20% trichloroacetic acid (TCA, Fisher Scientific). The reaction mixture was spotted on GF/A paper circles (Whatman), washed three times with 3 mL of 10% TCA and once with 3 mL of ethanol. The dried circles were subjected to liquid-scintillation counting with Cytoscint scintillant.

Series [2] relates to CMV-luc construct in KG-1 cells. As to the kind of experiment: CMV-luc assay (luciferase re-expression from methylated CMV promoter). The settings on record: 24 h. The format is cell-based.

As to `CN1CCCN(c2nc(NC3CCN(Cc4ccccc4)CC3)c3ccccc3n2)CC1` [Compound 4], the inhibition at 8 µM in series [1] turned out to be 0%. Also, the “fold-induction of the luciferase signal (CMV-luc)” value (“fold-induction” below) in series [2] (10 µM) was 2.8 fold; in series [2] (25 µM) it was 12.5 fold; in series [2] (50 µM) it was “ineffective”.

For the molecule `c1ccc(CN2CCC(Nc3nc(N4CCCC4)nc4ccccc34)CC2)cc1` [Compound 10, N-(1-benzylpiperidin-4-yl)-2-(pyrrolidin-1-yl)quinazolin-4-amine], the melting point lay in the range of 112 to 115 °C. In series [1], the inhibition at 8 µM was 9.2%. In series [2] (5 µM), the “fold-induction” value is 2/3. For the same molecule, the “fold-induction” value in series [2] (25 µM) is reported as “not effective”.

Take `c1ccc(CN2CCC(Nc3nc(N4CCN(c5ccccn5)CC4)nc4ccccc34)CC2)cc1` [Compound 13]: the inhibition at 8 µM in series [1] was determined as 3.3%. Also, the “fold-induction” value in series [2] (5 µM) is reported as 2/3; in series [2] (25 µM), “not effective”.

In the case of `c1ccc(CN2CCC(Nc3nc(N4CCN(c5ccccc5)CC4)nc4ccccc34)CC2)cc1` [Compound 14, N-(1-benzylpiperidin-4-yl)-2-(4-phenylpiperazin-1-yl)quinazolin-4-amine], in series [1], the inhibition at 8 µM is 10%. The “fold-induction” value in series [2] (5 µM) was 2/3; in series [2] (25 µM), 7.5 fold; in series [2] (50 µM), “ineffective”.
